In the NIST ThermoML archive (doi:10.1021/acs.jced.9b00704):

Conditions: Liquid, Light diffraction method

CCCCCC(=O)OC [methyl hexanoate]
Conditions	speed of sound [m/s]
297.83 K, 110 kPa	1225.1
298.17 K, 10000 kPa	1274.4
298.35 K, 7010 kPa	1261.9
298.56 K, 5000 kPa	1252.4
298.76 K, 1010 kPa	1231.7
298.85 K, 3000 kPa	1240.3
306.48 K, 110 kPa	1182.9
308.58 K, 10010 kPa	1227.8
308.59 K, 1010 kPa	1186.9
308.9 K, 7000 kPa	1221.1
309.13 K, 5010 kPa	1210.5
309.19 K, 3010 kPa	1197.6
317.52 K, 10010 kPa	1181
317.6 K, 7010 kPa	1175.8
317.92 K, 100 kPa	1137
318.3 K, 1000 kPa	1142.6
318.41 K, 5010 kPa	1160.9
319.17 K, 3010 kPa	1152.2
327.21 K, 110 kPa	1090.2
327.38 K, 7010 kPa	1130.2
327.4 K, 10010 kPa	1143.2
327.58 K, 1010 kPa	1097.9
327.64 K, 5010 kPa	1120.6
327.9 K, 3000 kPa	1107.9
336.91 K, 100 kPa	1055.2
337.21 K, 5000 kPa	1091.3
337.21 K, 7010 kPa	1102.7
337.71 K, 10010 kPa	1111.9
337.95 K, 1000 kPa	1065.3
337.97 K, 3000 kPa	1078
346.56 K, 1010 kPa	1029.7
346.9 K, 100 kPa	1021.1
346.92 K, 10020 kPa	1081.3
347.43 K, 7000 kPa	1067.3
347.71 K, 3010 kPa	1040.3
347.75 K, 5010 kPa	1054.8
356.24 K, 3010 kPa	1011.9
356.68 K, 10010 kPa	1048.7
357.28 K, 100 kPa	970.4
357.33 K, 7010 kPa	1033.1
357.35 K, 5000 kPa	1022.1
357.85 K, 1010 kPa	989.8
366.38 K, 3010 kPa	970.6
366.68 K, 5000 kPa	980.4
366.89 K, 10000 kPa	1005.5
367.18 K, 7000 kPa	989.6
367.24 K, 1010 kPa	947.2
367.48 K, 100 kPa	938.2
377.25 K, 3000 kPa	927.9
377.7 K, 10000 kPa	974.3
377.72 K, 5000 kPa	939.5
377.88 K, 110 kPa	903.5
377.91 K, 1010 kPa	910.8
377.97 K, 7000 kPa	961
386.63 K, 3000 kPa	894.6
386.85 K, 10000 kPa	945.8
387.01 K, 1010 kPa	874.2
387.07 K, 7000 kPa	922
387.29 K, 5000 kPa	908.4
387.73 K, 100 kPa	866.5
396.7 K, 3000 kPa	862
397.25 K, 10010 kPa	909.9
397.54 K, 7020 kPa	891.4
397.64 K, 1010 kPa	842.1
397.83 K, 5000 kPa	875.5
398.6 K, 90 kPa	827.8
406.65 K, 1010 kPa	810.8
406.78 K, 3010 kPa	828.8
406.79 K, 7020 kPa	857.7
406.89 K, 10000 kPa	885.7
406.99 K, 5010 kPa	841.7
407.93 K, 100 kPa	799
416.99 K, 7010 kPa	835.1
417.08 K, 1010 kPa	775.9
417.12 K, 3000 kPa	796.9
417.21 K, 5010 kPa	808.2
417.21 K, 10020 kPa	864.4
417.52 K, 110 kPa	764.3
427.06 K, 1000 kPa	746
427.25 K, 3000 kPa	770.6
427.25 K, 5000 kPa	786.5
427.33 K, 7000 kPa	805.5
427.38 K, 10010 kPa	833.5
436.99 K, 1010 kPa	714.9
437.07 K, 5000 kPa	751.6
437.97 K, 6990 kPa	771.5
438.1 K, 9980 kPa	802.1
439.3 K, 3000 kPa	727.5
446.68 K, 3010 kPa	706.2
447 K, 4990 kPa	723
447.21 K, 10010 kPa	776
447.38 K, 7000 kPa	744.5
447.88 K, 1000 kPa	672.6
456.61 K, 3000 kPa	673.8
456.81 K, 9990 kPa	747
456.84 K, 5000 kPa	695.3
457.1 K, 7010 kPa	715.1
457.84 K, 990 kPa	642.8
466.22 K, 3010 kPa	642.9
466.28 K, 5000 kPa	663.1
466.3 K, 7000 kPa	689.7
466.3 K, 10010 kPa	720.4
466.46 K, 1010 kPa	613.5
478.01 K, 1010 kPa	570.1
478.28 K, 7000 kPa	646.3
478.28 K, 10000 kPa	677.8
478.34 K, 5010 kPa	623.4
478.43 K, 3010 kPa	596.3
487.58 K, 1000 kPa	535.4
487.67 K, 3010 kPa	565.4
487.67 K, 5000 kPa	595
487.69 K, 7000 kPa	617
487.71 K, 10000 kPa	653.5
497.17 K, 1010 kPa	499.6
497.36 K, 5000 kPa	568.5
497.38 K, 7000 kPa	591.6
497.43 K, 3010 kPa	534.1
497.44 K, 10000 kPa	629.4
506.49 K, 3000 kPa	503.9
506.88 K, 1000 kPa	464.6
506.97 K, 7010 kPa	563.3
507.02 K, 10020 kPa	599.2
507.11 K, 5010 kPa	535.1
516.99 K, 1010 kPa	426.2
517.52 K, 7010 kPa	531.6
517.56 K, 3000 kPa	468.7
517.6 K, 5010 kPa	504.9
517.63 K, 10010 kPa	571
528.29 K, 5000 kPa	472.6
528.46 K, 7000 kPa	504
528.65 K, 10010 kPa	547.3
529.52 K, 3000 kPa	426
538.04 K, 3000 kPa	396.8
538.26 K, 5010 kPa	439.9
538.26 K, 7000 kPa	472.1
538.35 K, 10000 kPa	516.1
547.56 K, 3000 kPa	362.7
547.96 K, 5000 kPa	406.1
548.18 K, 9980 kPa	498.8
548.26 K, 7000 kPa	446
557.68 K, 3000 kPa	321.9
557.89 K, 7010 kPa	423
558.07 K, 10000 kPa	472.6
558.34 K, 5000 kPa	378.3
565.69 K, 10010 kPa	446.4
566.56 K, 3010 kPa	285.3
567.58 K, 5000 kPa	346.5
567.72 K, 7010 kPa	390.1
575.39 K, 5000 kPa	317.9
576.35 K, 7000 kPa	365.2
576.45 K, 3010 kPa	241
577.04 K, 10010 kPa	420.8
586.48 K, 3000 kPa	197.5
586.99 K, 5010 kPa	275
587.76 K, 7000 kPa	334.6
588.07 K, 10030 kPa	393.2
